Assay: Viscosity of crude blended with dimethyl sulfide (rheometer)
Assay type: physicochemical
Description: The quality of dimethyl sulfide as an oil recovery agent based on the crude oil viscosity lowering properties of dimethyl sulfide was evalulated. Three crude oils having widely disparate viscosity characteristics—an African Waxy crude, a Middle Eastern asphaltic crude, and a Canadian asphaltenic crude—were blended with dimethyl sulfide. A control sample of each crude was prepared containing no dimethyl sulfide, and samples of each crude were prepared and blended with dimethyl sulfide to prepare crude samples containing increasing concentrations of dimethyl sulfide. Each sample of each of the crudes was heated to 60° C. to dissolve any waxes therein and to permit weighing of a homogeneous liquid, weighed, allowed to cool overnight, then blended with a selected quantity of dimethyl sulfide. The samples of the crude/dimethyl sulfide blend were then heated to 60° C. and mixed to ensure homogeneous blending of the dimethyl sulfide in the samples. Absolute (dynamic) viscosity measurements of each of the samples were taken using rheometer and closed cup sensor assembly. Viscosity measurements of each of the samples of the West African waxy crude and the Middle Eastern asphaltic crude were taken at 20° C., 40° C., 60° C., 80° C., and then again at 20° C. after cooling from 80° C., where the second measurement at 20° C. is taken to measure the viscosity without the presence of waxes since wax formation occurs slowly enough to permit viscosity measurement at 20° C. without the presence of wax. Viscosity measurements of each of the samples of the Canadian asphaltenic crude were taken at 5° C., 10° C., 20° C., 40° C., 60° C., 80° C., The measured viscosities for each of the crudes are shown in Tables 3, 4, and 5 below.

Structure (SMILES): CSC [Dimethyl Sulfide, dimethyl sulfide]
- Viscosity of Topped Canadian asphaltenic Crude (DMS 1.43 wt. %, 20° C.): 212525 mPa s
- Viscosity of Topped Canadian asphaltenic Crude (DMS 1.43 wt. %, 40° C.): 14721 mPa s
- Viscosity of Topped Canadian asphaltenic Crude (DMS 1.43 wt. %, 60° C.): 2209 mPa s
- Viscosity of Topped Canadian asphaltenic Crude (DMS 1.43 wt. %, 80° C.): 538 mPa s
- Viscosity of Topped Canadian asphaltenic Crude (DMS 2.07 wt. %, 20° C.): 134880 mPa s
- Viscosity of Topped Canadian asphaltenic Crude (DMS 2.07 wt. %, 40° C.): 10523 mPa s
- Viscosity of Topped Canadian asphaltenic Crude (DMS 2.07 wt. %, 60° C.): 1747 mPa s
- Viscosity of Topped Canadian asphaltenic Crude (DMS 2.07 wt. %, 80° C.): 427 mPa s
- Viscosity of Topped Canadian asphaltenic Crude (DMS 4.87 wt. %, 20° C.): 28720 mPa s
- Viscosity of Topped Canadian asphaltenic Crude (DMS 4.87 wt. %, 40° C.): 3235 mPa s
- Viscosity of Topped Canadian asphaltenic Crude (DMS 4.87 wt. %, 60° C.): 985 mPa s
- Viscosity of Topped Canadian asphaltenic Crude (DMS 4.87 wt. %, 80° C.): 328 mPa s
- Viscosity of Topped Canadian asphaltenic Crude (DMS 8.01 wt. %, 20° C.): 5799 mPa s
- Viscosity of Topped Canadian asphaltenic Crude (DMS 8.01 wt. %, 40° C.): 982 mPa s
- Viscosity of Topped Canadian asphaltenic Crude (DMS 8.01 wt. %, 60° C.): 275 mPa s
- Viscosity of Topped Canadian asphaltenic Crude (DMS 8.01 wt. %, 80° C.): 106 mPa s
- Viscosity of Topped Canadian asphaltenic Crude (DMS 9.80 wt. %, 20° C.): 2760 mPa s
- Viscosity of Topped Canadian asphaltenic Crude (DMS 9.80 wt. %, 40° C.): 571 mPa s
- Viscosity of Topped Canadian asphaltenic Crude (DMS 9.80 wt. %, 60° C.): 173 mPa s
- Viscosity of Topped Canadian asphaltenic Crude (DMS 9.80 wt. %, 80° C.): 73 mPa s
- Viscosity of Topped Canadian asphaltenic Crude (DMS 14.81 wt. %, 5° C.): 1794 mPa s
- Viscosity of Topped Canadian asphaltenic Crude (DMS 14.81 wt. %, 10° C.): 1155 mPa s
- Viscosity of Topped Canadian asphaltenic Crude (DMS 14.81 wt. %, 20° C.): 548 mPa s
- Viscosity of Topped Canadian asphaltenic Crude (DMS 14.81 wt. %, 40° C.): 159 mPa s
- Viscosity of Topped Canadian asphaltenic Crude (DMS 14.81 wt. %, 60° C.): 64 mPa s
- Viscosity of Topped Canadian asphaltenic Crude (DMS 14.81 wt. %, 80° C.): 32 mPa s
- Viscosity of Topped Canadian asphaltenic Crude (DMS 19.78 wt. %, 20° C.): 188 mPa s
- Viscosity of Topped Canadian asphaltenic Crude (DMS 19.78 wt. %, 40° C.): 69 mPa s
- Viscosity of Topped Canadian asphaltenic Crude (DMS 19.78 wt. %, 60° C.): 33 mPa s
- Viscosity of Topped Canadian asphaltenic Crude (DMS 19.78 wt. %, 80° C.): 19 mPa s
- Viscosity of Topped Canadian asphaltenic Crude (DMS 29.88 wt. %, 5° C.): 113 mPa s
- Viscosity of Topped Canadian asphaltenic Crude (DMS 29.88 wt. %, 10° C.): 81 mPa s
- Viscosity of Topped Canadian asphaltenic Crude (DMS 29.88 wt. %, 20° C.): 51 mPa s
- Viscosity of Topped Canadian asphaltenic Crude (DMS 29.88 wt. %, 40° C.): 22 mPa s
- Viscosity of Topped Canadian asphaltenic Crude (DMS 29.88 wt. %, 60° C.): 13 mPa s
- Viscosity of Topped Canadian asphaltenic Crude (DMS 29.88 wt. %, 80° C.): 8 mPa s
- Viscosity of Topped Canadian asphaltenic Crude (DMS 39.61 wt. %, 5° C.): 23 mPa s
- Viscosity of Topped Canadian asphaltenic Crude (DMS 39.61 wt. %, 10° C.): 20 mPa s
- Viscosity of Topped Canadian asphaltenic Crude (DMS 39.61 wt. %, 20° C.): 14 mPa s
- Viscosity of Topped Canadian asphaltenic Crude (DMS 39.61 wt. %, 40° C.): 8 mPa s
- Viscosity of Topped Canadian asphaltenic Crude (DMS 39.61 wt. %, 60° C.): 6 mPa s
- Viscosity of Topped Canadian asphaltenic Crude (DMS 39.61 wt. %, 80° C.): 4 mPa s

Source: patent US20140166543A1, “SYSTEM AND PROCESS FOR RECOVERING BITUMEN FROM OIL SANDS” (Shell Oil Company, priority 2012, published 2014)
